Experimental data: US9708314B2, “Heterocyclic amide compound” (NISSAN CHEMICAL INDUSTRIES, LTD., priority 2013, dated 2017)

What was measured:
Assay type in all cases: in vivo
[1] = system: transplanted Oryza sativa; test: Test Example 1: effect on crop, application before weed generation in submerged conditions; conditions: Application herbicide amount 320 g/ha; Seventeenth Table
Outline: (§1)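 Submerged pot test: alluvial soil, 4 cm water, seeds sown mixed, 2.5-leaf rice transplanted; emulsion in water applied to surface day of sowing, dose g/ha; greenhouse 25–30° C.; 3 wk; 0–5 rating.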

Abutilon theophrasti = test: Test Example 4: herbicidal effect by application to foliage (diluvial soil, plastic box); conditions: for M (Abutilon theophrasti) herbicidal effect: application to foliage, application herbicide amount 320 g/ha; for M: Application herbicide amount 320 g/ha
Outline: (§2)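 Read-out is a 0–5 visual grade of herbicidal ratio (5: ≥90%, almost withered; 0: ≤5%) taken three weeks after treatment. Compound was applied as a diluted emulsion to stem and leaf parts of 14-day greenhouse-grown plants (25° C. to 30° C.) at rates expressed as g/ha.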

Galium spurium = test: as above; conditions: for Q (Galium spurium) herbicidal effect: application to foliage, application herbicide amount 320 g/ha; for Q: Application herbicide amount 320 g/ha
Outline: as §2

[2] = system: Echinochloa crus-galli var. crus-galli; test: as above; conditions: for H (Echinochloa crus-galli var. crus-galli) herbicidal effect: application to foliage, application herbicide amount 320 g/ha; for H: Application herbicide amount 320 g/ha
Outline: as §2

Digitaria ciliaris = test: as above; conditions: for F (Digitaria ciliaris) herbicidal effect: application to foliage, application herbicide amount 320 g/ha; for F: Application herbicide amount 320 g/ha
Outline: as §2

Lolium multiflorum Lam. = test: as above; conditions: for K (Lolium multiflorum Lam.) herbicidal effect: application to foliage, application herbicide amount 320 g/ha; for K: Application herbicide amount 320 g/ha
Outline: as §2

Alopecurus myosuroides = test: as above; conditions: for J (Alopecurus myosuroides) herbicidal effect: application to foliage, application herbicide amount 320 g/ha; for J: Application herbicide amount 320 g/ha
Outline: as §2

Veronica persica = test: as above; conditions: for R (Veronica persica) herbicidal effect: application to foliage, application herbicide amount 320 g/ha; for R: Application herbicide amount 320 g/ha
Outline: as §2

Apera spica-venti. = test: as above; conditions: for L (Apera spica-venti.) herbicidal effect: application to foliage, application herbicide amount 320 g/ha; for L: Application herbicide amount 320 g/ha
Outline: as §2

Chenopodium album = test: as above; conditions: for O (Chenopodium album) herbicidal effect: application to foliage, application herbicide amount 320 g/ha; for O: Application herbicide amount 320 g/ha
Outline: as §2

Setaria viridis = test: as above; conditions: for G (Setaria viridis) herbicidal effect: application to foliage, application herbicide amount 320 g/ha; for G: Application herbicide amount 320 g/ha
Outline: as §2

Avena fatua = test: as above; conditions: for I (Avena fatua) herbicidal effect: application to foliage, application herbicide amount 320 g/ha; for I: Application herbicide amount 320 g/ha
Outline: as §2

Glycine max = test: Test Example 4: effect on crop by application to foliage (diluvial soil, plastic box); conditions: for c (Glycine max) effect on crop: application to foliage, application herbicide amount 320 g/ha; for c: Application herbicide amount 320 g/ha, effect on crop
Outline: as §2

Zea mays = test: as above; conditions: for b (Zea mays) effect on crop: application to foliage, application herbicide amount 320 g/ha; for b: Application herbicide amount 320 g/ha, effect on crop
Outline: as §2

Brassica campestris L. = test: as above; conditions: for g (Brassica campestris L.) effect on crop: application to foliage, application herbicide amount 320 g/ha; for g: Application herbicide amount 320 g/ha, effect on crop
Outline: as §2

[3] = system: directly sowed Oryza sativa; test: as above; conditions: for d (directly sowed Oryza sativa) effect on crop: application to foliage, application herbicide amount 320 g/ha; for d: Application herbicide amount 320 g/ha, effect on crop
Outline: as §2

Triticum aestivum = test: as above; conditions: for e (Triticum aestivum) effect on crop: application to foliage, application herbicide amount 320 g/ha; for e: Application herbicide amount 320 g/ha, effect on crop
Outline: as §2

[4] = system: Beta vulgaris ssp. vulgaris; test: as above; conditions: for f (Beta vulgaris ssp. vulgaris) effect on crop: application to foliage, application herbicide amount 320 g/ha
Outline: as §2

Scirpus juncoides = test: Test Example 1: herbicidal activity, application before weed generation in submerged conditions; conditions: Application herbicide amount 320 g/ha; Seventeenth Table
Outline: as §1

[5] = system: Echinochloa oryzacola Vasing.; test: as above; conditions: Application herbicide amount 320 g/ha; Seventeenth Table
Outline: as §1

Monochoria vaginalis = test: as above; conditions: Application herbicide amount 320 g/ha; Seventeenth Table
Outline: as §1

Row | SMILES | a: transplanted Oryza sativa (effect on crop grade) [1] | M (Abutilon theophrasti) herbicidal effect (Abutilon theophrasti) | Q (Galium spurium) herbicidal effect (Galium spurium) | H (Echinochloa crus-galli var. crus-galli) herbicidal effect [2] | F (Digitaria ciliaris) herbicidal effect (Digitaria ciliaris) | K (Lolium multiflorum Lam.) herbicidal effect (Lolium multiflorum Lam.) | J (Alopecurus myosuroides) herbicidal effect (Alopecurus myosuroides) | R (Veronica persica) herbicidal effect (Veronica persica) | L (Apera spica-venti.) herbicidal effect (Apera spica-venti.) | O (Chenopodium album) herbicidal effect (Chenopodium album) | G (Setaria viridis) herbicidal effect (Setaria viridis) | I (Avena fatua) herbicidal effect (Avena fatua) | c (Glycine max) effect on crop (Glycine max) | b (Zea mays) effect on crop (Zea mays) | g (Brassica campestris L.) effect on crop (Brassica campestris L.) | d (directly sowed Oryza sativa) effect on crop [3] | e (Triticum aestivum) effect on crop (Triticum aestivum) | B: Scirpus juncoides (herbicidal effect grade) (Scirpus juncoides) | A: Echinochloa oryzicola Vasing. (herbicidal effect grade) [5] | C: Monochoria vaginalis (herbicidal effect grade) (Monochoria vaginalis) | other results
1 | CC(C)c1nnc2c(C(=O)Nc3nnc(C4CC4)o3)ccc(C(F)(F)F)n12 [1-051] | 0 (Herbicidal ratio of 5% or less (almost no effect)) | 5 (Herbicidal ratio of 90% or more (almost completely withered)) | 2 (Herbicidal ratio of 20% or more and less than 40%) | 4 (Herbicidal ratio of 70% or more and less than 90%) | 3 (Herbicidal ratio of 40% or more and less than 70%) | 1 (Herbicidal ratio of 5% or more and less than 20%) | 0 (Herbicidal ratio of 5% or less (almost no effect)) | 3 (Herbicidal ratio of 40% or more and less than 70%) | 1 (Herbicidal ratio of 5% or more and less than 20%) | 5 (Herbicidal ratio of 90% or more (almost completely withered)) | 3 (Herbicidal ratio of 40% or more and less than 70%) | 1 (Herbicidal ratio of 5% or more and less than 20%) | 0 (Herbicidal ratio of 5% or less (almost no effect)) | 0 (Herbicidal ratio of 5% or less (almost no effect)) | 1 (Herbicidal ratio of 5% or more and less than 20%) | 1 (Herbicidal ratio of 5% or more and less than 20%) | 1 (Herbicidal ratio of 5% or more and less than 20%) | 4 (Herbicidal ratio of 70% or more and less than 90%) | 5 (Herbicidal ratio of 90% or more (almost completely withered)) | 4 (Herbicidal ratio of 70% or more and less than 90%) | f (Beta vulgaris ssp. vulgaris) effect on crop [4]: 3 (Herbicidal ratio of 40% or more and less than 70%)
2 | CSCc1nnc2c(C(=O)Nc3nnc(C)o3)ccc(C(F)(F)F)n12 [1-030] | 0 (Herbicidal ratio of 5% or less (almost no effect)) | 5 (Herbicidal ratio of 90% or more (almost completely withered)) | 4 (Herbicidal ratio of 70% or more and less than 90%) | 5 (Herbicidal ratio of 90% or more (almost completely withered)) | 5 (Herbicidal ratio of 90% or more (almost completely withered)) | 3 (Herbicidal ratio of 40% or more and less than 70%) | 3 (Herbicidal ratio of 40% or more and less than 70%) | 4 (Herbicidal ratio of 70% or more and less than 90%) | 4 (Herbicidal ratio of 70% or more and less than 90%) | 5 (Herbicidal ratio of 90% or more (almost completely withered)) | 5 (Herbicidal ratio of 90% or more (almost completely withered)) | 4 (Herbicidal ratio of 70% or more and less than 90%) | 2 (Herbicidal ratio of 20% or more and less than 40%) | 3 (Herbicidal ratio of 40% or more and less than 70%) | 4 (Herbicidal ratio of 70% or more and less than 90%) | 5 (Herbicidal ratio of 90% or more (almost completely withered)) | 3 (Herbicidal ratio of 40% or more and less than 70%) | 3 (Herbicidal ratio of 40% or more and less than 70%) | 5 (Herbicidal ratio of 90% or more (almost completely withered)) | 3 (Herbicidal ratio of 40% or more and less than 70%) | f (Beta vulgaris ssp. vulgaris) effect on crop [4]: 5 (Herbicidal ratio of 90% or more (almost completely withered))
3 | Cc1nnc(NC(=O)c2ccc(C(F)(F)F)n3c(NC(C)C)nnc23)o1 [1-090] | 0 (Herbicidal ratio of 5% or less (almost no effect)) |  |  |  |  |  |  |  |  |  |  |  |  |  |  |  |  | 4 (Herbicidal ratio of 70% or more and less than 90%) | 3 (Herbicidal ratio of 40% or more and less than 70%) | 2 (Herbicidal ratio of 20% or more and less than 40%) | M (Abutilon theophrasti): 3 (Herbicidal ratio of 40% or more and less than 70%); Q (Galium spurium): 1 (Herbicidal ratio of 5% or more and less than 20%); H [2]: 5 (Herbicidal ratio of 90% or more (almost completely withered)); F (Digitaria ciliaris): 5 (Herbicidal ratio of 90% or more (almost completely withered)); K (Lolium multiflorum Lam.): 1 (Herbicidal ratio of 5% or more and less than 20%); J (Alopecurus myosuroides): 1 (Herbicidal ratio of 5% or more and less than 20%); R (Veronica persica): 5 (Herbicidal ratio of 90% or more (almost completely withered)); L (Apera spica-venti.): 1 (Herbicidal ratio of 5% or more and less than 20%); O (Chenopodium album): 5 (Herbicidal ratio of 90% or more (almost completely withered)); G (Setaria viridis): 3 (Herbicidal ratio of 40% or more and less than 70%); I (Avena fatua): 3 (Herbicidal ratio of 40% or more and less than 70%); c (Glycine max): 1 (Herbicidal ratio of 5% or more and less than 20%); b (Zea mays): 0 (Herbicidal ratio of 5% or less (almost no effect)); g (Brassica campestris L.): 4 (Herbicidal ratio of 70% or more and less than 90%); d [3]: 4 (Herbicidal ratio of 70% or more and less than 90%); e (Triticum aestivum): 0 (Herbicidal ratio of 5% or less (almost no effect)); f ([4]; Application herbicide amount 320 g/ha, effect on crop): 5 (Herbicidal ratio of 90% or more (almost completely withered))
4 | Cc1nnc(NC(=O)c2ccc(C(F)(F)F)n3c(Nc4ccccc4)nnc23)o1 [1-082] | 0 (Herbicidal ratio of 5% or less (almost no effect)) |  |  |  |  |  |  |  |  |  |  |  |  |  |  |  |  | 2 (Herbicidal ratio of 20% or more and less than 40%) | 3 (Herbicidal ratio of 40% or more and less than 70%) | 2 (Herbicidal ratio of 20% or more and less than 40%) | M (Abutilon theophrasti): 4 (Herbicidal ratio of 70% or more and less than 90%); Q (Galium spurium): 0 (Herbicidal ratio of 5% or less (almost no effect)); H [2]: 4 (Herbicidal ratio of 70% or more and less than 90%); F (Digitaria ciliaris): 4 (Herbicidal ratio of 70% or more and less than 90%); K (Lolium multiflorum Lam.): 1 (Herbicidal ratio of 5% or more and less than 20%); J (Alopecurus myosuroides): 0 (Herbicidal ratio of 5% or less (almost no effect)); R (Veronica persica): 4 (Herbicidal ratio of 70% or more and less than 90%); L (Apera spica-venti.): 1 (Herbicidal ratio of 5% or more and less than 20%); O (Chenopodium album): 5 (Herbicidal ratio of 90% or more (almost completely withered)); G (Setaria viridis): 3 (Herbicidal ratio of 40% or more and less than 70%); I (Avena fatua): 0 (Herbicidal ratio of 5% or less (almost no effect)); c (Glycine max): 0 (Herbicidal ratio of 5% or less (almost no effect)); b (Zea mays): 0 (Herbicidal ratio of 5% or less (almost no effect)); g (Brassica campestris L.): 0 (Herbicidal ratio of 5% or less (almost no effect)); d [3]: 3 (Herbicidal ratio of 40% or more and less than 70%); e (Triticum aestivum): 0 (Herbicidal ratio of 5% or less (almost no effect))
